From patent US20140058103A1, “Inhibitors of PI3K-Delta and Methods of Their Use and Manufacture” (Exelixis, Inc., priority 2010, published 2014)
pIC50: −log10 of the molar value.

What follows are molecules tested against PI3K delta (Homo sapiens, UniProt O00329) (assay: Luciferase-coupled chemiluminescence kinase assay (ATP consumption, KinaseGlo)).
Assay type: biochemical
Outline: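 ATP consumption measured by KinaseGlo luciferase chemiluminescence after a 2 h reaction at ambient temperature, with ATP at or below the kinase KM. Ten inhibitor concentrations per curve; IC50 from four-parameter nonlinear regression.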

Chain of PI3K delta (O00329 whole entry): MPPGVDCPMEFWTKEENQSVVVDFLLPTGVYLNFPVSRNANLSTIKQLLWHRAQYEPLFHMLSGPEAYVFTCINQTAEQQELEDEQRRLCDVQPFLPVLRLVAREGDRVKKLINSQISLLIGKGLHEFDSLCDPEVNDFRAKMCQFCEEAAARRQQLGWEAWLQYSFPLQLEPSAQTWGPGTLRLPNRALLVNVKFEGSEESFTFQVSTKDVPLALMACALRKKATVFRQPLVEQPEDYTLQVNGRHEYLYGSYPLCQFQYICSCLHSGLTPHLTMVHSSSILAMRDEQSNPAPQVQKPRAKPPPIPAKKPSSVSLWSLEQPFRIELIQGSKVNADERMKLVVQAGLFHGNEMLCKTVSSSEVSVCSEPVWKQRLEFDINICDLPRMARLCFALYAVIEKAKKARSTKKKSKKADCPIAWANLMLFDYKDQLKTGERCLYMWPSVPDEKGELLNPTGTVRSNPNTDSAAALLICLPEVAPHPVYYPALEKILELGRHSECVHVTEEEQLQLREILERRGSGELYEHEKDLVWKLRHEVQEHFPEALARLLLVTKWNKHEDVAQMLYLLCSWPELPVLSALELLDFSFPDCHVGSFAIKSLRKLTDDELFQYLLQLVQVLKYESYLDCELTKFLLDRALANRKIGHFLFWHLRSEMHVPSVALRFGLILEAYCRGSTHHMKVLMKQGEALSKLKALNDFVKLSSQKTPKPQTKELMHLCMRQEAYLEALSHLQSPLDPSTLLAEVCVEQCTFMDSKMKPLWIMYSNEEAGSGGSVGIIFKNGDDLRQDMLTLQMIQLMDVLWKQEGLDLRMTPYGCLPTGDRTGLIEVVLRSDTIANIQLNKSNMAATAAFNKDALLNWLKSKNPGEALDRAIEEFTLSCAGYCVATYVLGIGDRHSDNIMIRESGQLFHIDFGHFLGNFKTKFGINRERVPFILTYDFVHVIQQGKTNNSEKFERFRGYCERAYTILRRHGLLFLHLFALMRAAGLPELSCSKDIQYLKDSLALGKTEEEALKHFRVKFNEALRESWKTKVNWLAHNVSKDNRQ
Chain of PI3K delta (P27986 whole entry partner): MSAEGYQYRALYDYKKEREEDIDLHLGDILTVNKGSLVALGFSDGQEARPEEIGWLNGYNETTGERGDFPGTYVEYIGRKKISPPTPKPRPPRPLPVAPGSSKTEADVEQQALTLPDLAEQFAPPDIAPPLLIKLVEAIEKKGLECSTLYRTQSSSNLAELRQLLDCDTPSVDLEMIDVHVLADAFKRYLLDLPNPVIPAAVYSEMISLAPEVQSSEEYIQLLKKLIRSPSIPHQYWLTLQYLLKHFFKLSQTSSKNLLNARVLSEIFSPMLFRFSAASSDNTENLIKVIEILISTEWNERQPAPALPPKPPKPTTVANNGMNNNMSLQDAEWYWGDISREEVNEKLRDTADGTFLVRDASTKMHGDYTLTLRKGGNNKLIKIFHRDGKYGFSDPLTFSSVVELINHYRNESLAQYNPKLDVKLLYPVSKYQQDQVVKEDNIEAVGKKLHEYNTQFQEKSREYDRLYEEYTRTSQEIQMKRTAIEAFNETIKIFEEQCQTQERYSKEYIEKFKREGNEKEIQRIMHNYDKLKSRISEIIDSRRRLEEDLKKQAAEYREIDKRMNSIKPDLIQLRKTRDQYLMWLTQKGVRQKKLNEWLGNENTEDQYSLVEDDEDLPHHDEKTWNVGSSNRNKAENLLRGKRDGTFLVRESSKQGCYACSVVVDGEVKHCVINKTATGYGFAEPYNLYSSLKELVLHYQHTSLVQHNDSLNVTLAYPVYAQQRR

Question: With `CCn1c(C(=O)NCC2CCOCC2)nc2c(N3CCC4(CC3)C(=O)Nc3ccccc34)ncnc21` [Compound 161, 9-ethyl-6-(2-oxo-1,2-dihydro-1′H-spiro[indole-3,4′-piperidin]-1′-yl)-N-(tetrahydro-2H-pyran-4-ylmethyl)-9H-purine-8-carboxamide] as the molecule, how does the pIC50 read?
Answer: > 7.30

Question: How did the pIC50 turn out when `Cc1cccc(C(=O)NCc2ccccc2N2CCN(c3ncnc4c3nc(-c3cnn(C)c3)n4C)CC2)c1` [Compound 363, 3-methyl-N-[(2-{4-[9-methyl-8-(1-methyl-1H-pyrazol-4-yl)-9H-purin-6-yl]piperazin-1-yl}phenyl)methyl]benzamide] was run?
Answer: 6.30 to 6.60

Question: With `CCCCNC(=O)c1nc2c(N3CCC4(CC3)C(=O)Nc3ccccc34)ncnc2n1CC` [Compound 162, N-butyl-9-ethyl-6-(2-oxo-1,2-dihydro-1′H-spiro[indole-3,4′-piperidin]-1′-yl)-9H-purine-8-carboxamide] as the molecule, how does the pIC50 read?
Answer: > 7.30

Question: How did the pIC50 turn out when `Cn1c(C(=O)N2CCC2)nc2c(N3CCC4(CC3)C(=O)Nc3ccccc34)ncnc21` [Compound 90, 1′-[8-(azetidin-1-ylcarbonyl)-9-methyl-9H-purin-6-yl]spiro[indole-3,4′-piperidin]-2(1H)-one] was run?
Answer: 6.30 to 6.60

Question: With `COc1ccc(CNC(=O)c2nc3c(N4CCC(n5c(=O)[nH]c6ccccc65)CC4)ncnc3n2C)cc1` [Compound 59, 9-methyl-N-{[4-(methyloxy)phenyl]methyl}-6-[4-(2-oxo-2,3-dihydro-1H-benzimidazol-1-yl)piperidin-1-yl]-9H-purine-8-carboxamide] as the molecule, how does the pIC50 read?
Answer: 6.30 to 6.60

Question: With `Cn1cc(-c2nc3c(N4CCN(c5cccc(OCC(=O)NC6CCCC6)c5)CC4)ncnc3n2C)cn1` [Compound 356, N-cyclopentyl-2-[(3-{4-[9-methyl-8-(1-methyl-1H-pyrazol-4-yl)-9H-purin-6-yl]piperazin-1-yl}phenyl)oxy]acetamide] as the molecule, how does the pIC50 read?
Answer: 5.82 to 6.30

Question: With `Cn1c(C(=O)NCC2CC2)nc2c(N3CCC4(CC3)NC(=O)c3ccccc34)ncnc21` [Compound 142, N-(cyclopropylmethyl)-9-methyl-6-(3-oxo-2,3-dihydro-1′H-spiro[isoindole-1,4′-piperidir]-1′-yl)-9H-purine-8-carboxamide] as the molecule, how does the pIC50 read?
Answer: 5.82 to 6.30

Question: With `Cn1cc(-c2nc3c(N4CCN(C5=NS(=O)(=O)c6ccccc65)CC4)ncnc3n2C)cn1` [Compound 348, 6-[4-(1,1-dioxido-1,2-benzisothiazol-3-yl)piperazin-1-yl]-9-methyl-8-(1-methyl-1H-pyrazol-4-yl)-9H-purine] as the molecule, how does the pIC50 read?
Answer: 6.60 to 7.30

Question: With `Cn1c(C(=O)NCCCc2ccccc2)nc2c(N3CCC(n4c(=O)[nH]c5ccccc54)CC3)ncnc21` [Compound 65, 9-methyl-6-[4-(2-oxo-2,3-dihydro-1H-benzimidazol-1-yl)piperidin-1-yl]-N-(3-phenylpropyl)-9H-purine-8-carboxamide] as the molecule, how does the pIC50 read?
Answer: 5.82 to 6.30

Question: With `CCn1c(-c2cncnc2)nc2c(N3CCC4(CC3)C(=O)Nc3ccccc34)ncnc21` [Compound 292, 1′-(9-ethyl-8-pyrimidin-5-yl-9H-purin-6-yl)spiro[indole-3,4′-piperidin]-2(1H)-one] as the molecule, how does the pIC50 read?
Answer: > 7.30

Question: With `Cn1c(-n2cnc(Br)c2)nc2c(N3CCC(n4c(=O)[nH]c5ccccc54)CC3)ncnc21` [Compound 153, 1-{1-[8-(4-bromo-1H-imidazol-1-yl)-9-methyl-9H-purin-6-yl]piperidin-4-yl}-1,3-dihydro-2H-benzimidazol-2-one] as the molecule, how does the pIC50 read?
Answer: 6.60 to 7.30

Question: With `Cc1[nH]ncc1-c1nc2c(N3CCC(n4c(=O)[nH]c5ccccc54)CC3)ncnc2n1C` [Compound 242, 1-{1-[9-methyl-8-(5-methyl-1H-pyrazol-4-yl)-9H-purin-6-yl]piperidin-4-yl}-1,3-dihydro-2H-benzimidazol-2-one] as the molecule, how does the pIC50 read?
Answer: > 7.30

Question: `Cn1c(-c2cncnc2)nc2c(N3CCC(n4c(=O)[nH]c5ccccc54)CC3)ncnc21` [Compound 271, 1-[1-(9-methyl-8-pyrimidin-5-yl-9H-purin-6-yl)piperidin-4-yl]-1,3-dihydro-2H-benzimidazol-2-one] was tested. Which pIC50 did it give?
Answer: > 7.30

Question: How did the pIC50 turn out when `CCNC(=O)c1nc2c(N3CCC(n4c(=O)[nH]c5ccccc54)CC3)ncnc2n1CC` [Compound 192, N,9-diethyl-6-[4-(2-oxo-2,3-dihydro-1H-benzimidazol-1-yl)piperidin-1-yl]-9H-purine-8-carboxamide] was run?
Answer: 6.60 to 7.30

Question: How did the pIC50 turn out when `Cn1c(C(=O)NCC2CC2)nc2c(N3CCC(O)(c4ccccc4)CC3)ncnc21` [Compound 3, N-(cyclopropylmethyl)-6-(4-hydroxy-4-phenylpiperidin-1-yl)-9-methyl-9H-purine-8-carboxamide] was run?
Answer: 6.60 to 7.30

Question: How did the pIC50 turn out when `C#CCNC(=O)c1nc2c(N3CCC4(CC3)C(=O)Nc3ccccc34)ncnc2n1C` [Compound 140, 9-methyl-6-(2-oxo-1,2-dihydro-1′H-spiro[indole-3,4′-piperidin]-1′-yl)-N-prop-2-yn-1-yl-9H-purine-8-carboxamide] was run?
Answer: 6.60 to 7.30

Question: With `Cn1c(C(=O)NC2CCc3ccccc32)nc2c(N3CCC(n4c(=O)[nH]c5ccccc54)CC3)ncnc21` (stereo not drawn) [Compound 47, N-(2,3-dihydro-1H-inden-1-yl)-9-methyl-6-[4-(2-oxo-2,3-dihydro-1H-benzimidazol-1-yl)piperidin-1-yl]-9H-purine-8-carboxamide] as the molecule, how does the pIC50 read?
Answer: 6.60 to 7.30

Question: `CC(C)CCNC(=O)c1nc2c(N3CCC(n4c(=O)[nH]c5ccccc54)CC3)ncnc2n1C` [Compound 72, 9-methyl-N-(3-methylbutyl)-6-[4-(2-oxo-2,3-dihydro-1H-benzimidazol-1-yl)piperidin-1-yl]-9H-purine-8-carboxamide] was tested. Which pIC50 did it give?
Answer: 6.60 to 7.30

Question: `CCn1ncc(-c2nc3c(N4CCC(n5c(=O)[nH]c6ncccc65)CC4)ncnc3n2C)c1C` [Compound 337, 1-{1-[8-(1-ethyl-5-methyl-1H-pyrazol-4-yl)-9-methyl-9H-purin-6-yl]piperidin-4-yl}-1,3-dihydro-2H-imidazo[4,5-b]pyridin-2-one] was tested. Which pIC50 did it give?
Answer: > 7.30

Question: How did the pIC50 turn out when `Cn1cc(-c2nc3c(N4CCN(c5cccc(OCC(=O)N6CCCCCC6)c5)CC4)ncnc3n2C)cn1` [Compound 359, 6-(4-{3-[(2-azepan-1-yl-2-oxoethyl)oxy]phenyl}piperazin-1-yl)-9-methyl-8-(1-methyl-1H-pyrazol-4-yl)-9H-purine] was run?
Answer: 6.30 to 6.60

Question: With `Cn1c(C(=O)NCC2CCCCC2)nc2c(N3CCC4(CC3)C(=O)Nc3ccccc34)ncnc21` [Compound 88, N-(cyclohexylmethyl)-9-methyl-6-(2-oxo-1,2-dihydro-1′H-spiro[indole-3,4′-piperidin]-1′-yl)-9H-purine-8-carboxamide] as the molecule, how does the pIC50 read?
Answer: 5.82 to 6.30

Question: How did the pIC50 turn out when `Cc1cccc(Cl)c1S(=O)(=O)N1CCN(c2ncnc3c2nc(-c2cnn(C)c2)n3C)CC1` [Compound 386, 6-{4-[(2-chloro-6-methylphenyl)sulfonyl]piperazin-1-yl)-9-methyl-8-(1-methyl-1H-pyrazol-4-yl)-9H-purine] was run?
Answer: 6.30 to 6.60

Question: `Cn1c(C(=O)NCC2CC2)nc2c(N3CCC4(CC3)CC(=O)c3ccccc34)ncnc21` [Compound 119, N-(cyclopropylmethyl)-9-methyl-6-(3-oxo-2,3-dihydro-1′H-spiro[indene-1,4′-piperidin]-1′-yl)-9H-purine-8-carboxamide] was tested. Which pIC50 did it give?
Answer: 6.30 to 6.60

Question: How did the pIC50 turn out when `CCn1c(C(=O)NC2CCC2)nc2c(N3CCC4(CC3)C(=O)Nc3ccccc34)ncnc21` [Compound 221, N-cyclobutyl-9-ethyl-6-(2-oxo-1,2-dihydro-1′H-spiro[indole-3,4′-piperidin]-1′-yl)-9H-purine-8-carboxamide] was run?
Answer: > 7.30

Question: How did the pIC50 turn out when `CCNC(=O)c1nc2c(N3CCC4(CC3)C(=O)Nc3ccccc34)ncnc2n1C` [Compound 32, N-ethyl-9-methyl-6-(2-oxo-1,2-dihydro-1H-spiro[indole-3,4′-piperidin]-1′-yl)-9H-purine-8-carboxamide] was run?
Answer: 6.60 to 7.30

Question: With `Cn1c(C(=O)NCC2CCC2)nc2c(N3CCC4(CC3)C(=O)Nc3ccccc34)ncnc21` [Compound 89, N-(cyclobutylmethyl)-9-methyl-6-(2-oxo-1,2-dihydro-1′H-spiro[indole-3,4′-piperidin]-1′-yl)-9H-purine-8-carboxamide] as the molecule, how does the pIC50 read?
Answer: 6.60 to 7.30

Question: With `CCn1c(-c2cnc(NC)nc2)nc2c(N3CCC(n4c(=O)[nH]c5ccccc54)CC3)ncnc21` [Compound 307, 1-(1-{9-ethyl-8-[2-(methylamino)pyrimidin-5-yl]-9H-purin-6-yl)piperidin-4-yl)-1,3-dihydro-2H-benzimidazol-2-one] as the molecule, how does the pIC50 read?
Answer: > 7.30

Question: How did the pIC50 turn out when `Cn1c(C(=O)NCCO)nc2c(N3CCC(n4c(=O)[nH]c5ccccc54)CC3)ncnc21` [Compound 55, N-(2-hydroxyethyl)-9-methyl-6-[4-(2-oxo-2,3-dihydro-1H-benzimidazol-1-yl)piperidin-1-yl]-9H-purine-8-carboxamide] was run?
Answer: 6.60 to 7.30

Question: With `CCCNC(=O)c1nc2c(N3CCC4(CC3)C(=O)Nc3ccccc34)ncnc2n1CC` [Compound 220, 9-ethyl-6-(2-oxo-1,2-dihydro-1′H-spiro[indole-3,4′-piperidin]-1′-yl)-N-propyl-9H-purine-8-carboxamide] as the molecule, how does the pIC50 read?
Answer: > 7.30

Question: How did the pIC50 turn out when `CCCn1cc(-c2nc3c(N4CCC(n5c(=O)[nH]c6ccccc65)CC4)ncnc3n2C)cn1` [Compound 147, 1-{1-[9-methyl-8-(1-propyl-1H-pyrazol-4-yl)-9H-purin-6-yl]piperidin-4-yl}-1,3-dihydro-2H-benzimidazol-2-one] was run?
Answer: > 7.30

Question: `Cn1c(C(=O)NCc2ccncc2)nc2c(N3CCC4(CC3)C(=O)Nc3ccccc34)ncnc21` [Compound 22, 9-methyl-6-(2-oxo-1,2-dihydro-1′H-spiro[indole-3,4′-piperidin]-1′-yl)-N-(pyridin-4-ylmethyl)-9H-purine-8-carboxamide] was tested. Which pIC50 did it give?
Answer: 6.60 to 7.30

Question: How did the pIC50 turn out when `CCn1cc(-c2nc3c(N4CCN(C5=NS(=O)(=O)c6ccccc65)CC4)ncnc3n2C)cn1` [Compound 349, 6-[4-(1,1-dioxido-1,2-benzisothiazol-3-yl)piperazin-1-yl]-8-(1-ethyl-1H-pyrazol-4-yl)-9-methyl-9H-purine] was run?
Answer: 6.60 to 7.30

Question: With `CCn1c(-c2cnc(OC)nc2OC)nc2c(N3CCC(n4c(=O)[nH]c5ccccc54)CC3)ncnc21` [Compound 321, 1-(1-{8-[2,4-bis(methyloxy)pyrimidin-5-yl]-9-ethyl-9H-purin-6-yl}piperidin-4-yl)-1,3-dihydro-2H-benzimidazol-2-one] as the molecule, how does the pIC50 read?
Answer: 5.82 to 6.30
